In patent publication US10596127B2, “Composition for reducing the frequency of urination, method of making and use thereof” (WELLESLEY PHARMACEUTICALS, LLC, priority 2013, dated 2020):

Tests used:
[1] = tested on: COX2 expression by mouse bladder cells; experiment: Cell-based ELISA of total COX2 in mouse bladder cells; settings: for induction of COX2 responses by analgesic alone: 5 μM or 50 μM, 24-hour cultures, no stimulus; for effect on the effect of LPS on COX2 levels: LPS (1 μg/ml), analgesic at either 5 μM or 50 μM
Experimental: Bladder cells were removed from euthanized animals C57BL/6 mice (8-12 weeks old) and cells were isolated by enzymatic digestion followed by purification on a Percoll gradient. Briefly, bladders from 10 mice were minced with scissors to fine slurry in 10 ml of digestion buffer (RPMI 1640, 2% fetal bovine serum, 0.5 mg/ml collagenase, 30 μg/ml DNase). Bladder slurries were enzymatically digested for 30 minutes at 37° C. Undigested fragments were further dispersed through a cell-trainer. The cell suspension was pelleted and added to a discontinue 20%, 40% and 75% Percoll gradient for purification on mononuclear cells. Each experiment used 50-60 bladders.
After washes in RPMI 1640, bladder cells were resuspended RPMI 1640 supplemented with 10% fetal bovine serum, 15 mM HEPES, 2 mM L-glutamine, 100 U/ml penicillin, and 100 μg/ml of streptomycin and seeded in clear-bottom black 96-well cell culture microculture plates at a cell density of 3×10^4 cells per well in 100 μl. Cells were cultured at 37° C. in a 5% CO2 atmosphere.
Bladder cells were treated with analgesic solutions (50 well) either alone or together with carbachol (10-Molar, 50 μl/well), as an example of non-inflammatory stimuli, or lipopolysaccharide (LPS) of Salmonella typhimurium (1 μg/ml, 50 μl/well), as an example of […] stimuli. When no other effectors were added to the cells, 50 μl of RPMI 1640 without fetal bovine serum were added to the wells to adjust the final volume to 200 μl.
After 24 hours of culture, 150 μl of culture supernatants were collected, spun down for 2 min at 8,000 rpm at 4° C. to remove cells and debris and stored at −70° C. for analysis of Prostaglandin E2 (PGE2) responses by ELISA. Cells were fixed, permeabilized and blocked for detection of Cyclooxygenase-2 (COX2) using a fluorogenic substrate. In selected experiment cells were stimulated 12 hours in vitro for analysis of COX2 responses
COX2 responses were analyzed by a Cell-Based ELISA using Human/mouse total COX2 immunoassay (R&D Systems), following the instructions of the manufacturer. Briefly, after cells fixation and permeabilization, a mouse anti-total COX2 and a rabbit anti-total GAPDH were added to the wells of the clear-bottom black 96-well cell culture microculture plates. After incubation and washes, an HRP-conjugated anti-mouse IgG and an AP-conjugated anti-rabbit IgG were added to the wells. Following another incubation and set of washes, the HRP- and AP-fluorogenic substrates were added. Finally, a Victor® V multilabel plate reader (PerkinElmer) was used to read the fluorescence emitted at 600 nm (COX2 fluorescence) and 450 nm (GAPDH fluorescence). Results are expressed as relative levels of total COX2 as determined by relative fluorescence unit (RFUs) and normalized to the housekeeping protein GAPDH.

[2] = Serum levels of analgesic in human blood after oral therapeutic doses; format: in vivo; settings: adult humans, conversion of mg/L by molecular weight
From the text: Table 3 summarizes the results of several studies that measured serum levels of analgesic after oral therapeutic doses in adult humans. […] Therefore, the doses of analgesic tested in vitro in Table 2 cover the range of concentrations achievable in vivo in humans.

[3] = tested on: PGE2 secretion by mouse bladder cells; experiment: PGE2 ELISA of mouse bladder cell culture supernatants; format: cell-based; settings: for effect on the effect of LPS on PGE2 secretion: LPS (1 μg/ml), analgesic 5 or 50 μM
Experimental: Bladder cells were removed from euthanized animals C57BL/6 mice (8-12 weeks old) and cells were isolated by enzymatic digestion followed by purification on a Percoll gradient. […] Bladder slurries were enzymatically digested for 30 minutes at 37° C. Undigested fragments were further dispersed through a cell-trainer. The cell suspension was pelleted and added to a discontinue 20%, 40% and 75% Percoll gradient for purification on mononuclear cells. Each experiment used 50-60 bladders. […] Cells were cultured at 37° C. in a 5% CO2 atmosphere. Bladder cells were treated with analgesic solutions (50 well) either alone or together with carbachol (10-Molar, 50 μl/well), as an example of non-inflammatory stimuli, or lipopolysaccharide (LPS) of Salmonella typhimurium (1 μg/ml, 50 μl/well), as an example of […] stimuli. […] Cells were fixed, permeabilized and blocked for detection of Cyclooxygenase-2 (COX2) using a fluorogenic substrate. In selected experiment cells were stimulated 12 hours in vitro for analysis of COX2 responses […] More specifically, culture supernatants or PGE2 standards were added to the wells of a 96-well polystyrene microplate coated with a goat anti-mouse polyclonal antibody. After one hour incubation on a microplate shaker, an HRP-conjugated PGE2 was added and plates incubated for an additional two hours at room temperature. The plates were then washed and HRP substrate solution added to each well. The color was allowed to develop for 30 min and the reaction stopped by addition sulfuric acid before reading the plate at 450 nm with wavelength correction at 570 nm. Results are expressed as mean pg/ml of PGE2.

[4] = Inhibition of the urge to urinate in volunteer subjects; format: in vivo, human
From the text: Twenty volunteer subjects, both male and female were enrolled, each of which experienced premature urge or desire to urinate, interfering with their ability to sleep for a sufficient period of time to feel adequately rested. […] At least 14 subjects reported that they were able to rest better because they were not being awakened as frequently by the urge to urinate.

[5] = LPS (1 μg/ml) plus analgesic 5 μM, LPS alone 420 ± 26, unstimulated 158 ± 18
[6] = LPS (1 μg/ml) plus analgesic 50 μM, LPS alone 420 ± 26, unstimulated 158 ± 18
[7] = LPS (1 μg/ml) plus analgesic 5 μM, LPS alone 925 ± 55, unstimulated <20.5
[8] = LPS (1 μg/ml) plus analgesic 50 μM, LPS alone 925 ± 55, unstimulated <20.5

Compound	induction of COX2 responses by analgesic alone [1]	Total COX2 levels (Normalized RFUs) [1, 5]	Total COX2 levels (Normalized RFUs) [1, 6]	effect on the effect of LPS on COX2 levels [1]	Maximum serum levels after oral therapeutic doses [2]	PGE2 levels [3, 7]	PGE2 levels [3, 8]	effect on the effect of LPS on PGE2 secretion [3]	Total COX2 levels (Normalized RFUs) ([1]; stimulus alone, no analgesic (LPS 1 μg/ml, Carbachol (mM)), unstimulated 158 ± 18)	Total COX2 levels (Normalized RFUs) ([1]; stimulus alone, no analgesic (LPS 1 μg/ml, Carbachol (mM)), unstimulated 158 ± 18, listed as carbachol)	PGE2 levels ([3]; stimulus alone, no analgesic (LPS 1 μg/ml, Carbachol (mM)), unstimulated <20.5)	PGE2 levels (pg/ml) ([3]; stimulus alone, no analgesic (LPS 1 μg/ml, Carbachol (mM)), unstimulated <20.5, listed as carbachol)	benefit of less frequent urges to urinate after several weeks of nightly use ([4]; several subjects)	benefit after several days of abstaining from taking the dosages ([4]; subjects who had lost the benefit)	subjects who reported that they were able to rest better because they were not being awakened as frequently by the urge to urinate ([4]; twenty volunteer subjects, 400-800 mg as a single dose prior to bedtime)
COc1ccc2cc([C@H](C)C(=O)O)ccc2c1 [Naproxen]	none of the analgesics tested induced COX2 responses	284 ± 11 Normalized RFUs	279 ± 23 Normalized RFUs	suppress	≤ 260 µM	597 ± 19 pg/mL	588 ± 37 pg/mL	suppressed							
C[N+](C)(C)CCOC(N)=O [Carbachol, carbachol]									149 ± 21 Normalized RFUs	no significant effect	<20.5 pg/mL	not detected			
CC(C)Cc1ccc(C(C)C(=O)O)cc1 (centres unmarked) [Ibuprofen, ibuprofen]						593 ± 46 pg/mL	568 ± 32 pg/mL	suppressed					no longer being realized	return of the benefit	At least 14 subjects
CC(=O)Nc1ccc(O)cc1 [Acetaminophen, N-acetyl-para-aminophenol]	none of the analgesics tested induced COX2 responses	275 ± 12 Normalized RFUs	243 ± 15 Normalized RFUs	suppress		619 ± 32 pg/mL	600 ± 45 pg/mL	suppressed							
CC(=O)Oc1ccccc1C(=O)O [Aspirin, Acetylsalicylic acid]	none of the analgesics tested induced COX2 responses	240 ± 17 Normalized RFUs	258 ± 21 Normalized RFUs	suppress		588 ± 21 pg/mL	571 ± 53 pg/mL	suppressed							
